Test system: human foetal small bowel xenografts
Test: C.B-17 SCID mouse human intestinal xenotransplant model, Treg trafficking
Assay type: in vivo
Protocol: Mice are injected with anti-asialo GM1 antibody at day −2 prior to transfer in order to deplete natural killer (NK) cells. On the day of Treg transfer, mice were treated with Tregs that were either expanded with Rapamycin alone or with the addition of RAR568. Mice also received 1000IU of rhlL-2 IP on the day of Treg transfer, to support the Treg in circulation. After three days in circulation, the presence of CFSE labelled Tregs was assessed by FACS in digested xenograft samples and immunofluoresence on frozen sections. […] Induction of α4β7 is functionally relevant in vivo (e) Control XG, no Tregs, (f) XG from mouse treated with Rapa Tregs (g) XG from mouse treated with Rapa+RAR568 Tregs.
The C.B-17 SCID mouse human intestinal xenograft model has been previously described^28,29. Institutional Review Board (IRB) and Institutional Animal Care and Use Committee (IACUC) approvals were obtained prospectively (Ethics Committee for Animal Experimentation, Hebrew University of Jerusalem; MD-11-12692-4 and the Helsinki Committee of the Hadassah University Hospital; 81-23/04/04). Tregs were labelled with CFSE (Invitrogen) prior to transfer, as per manufacturer's instructions. Xenografts were processed as per LPMC digestion protocol. CFSE positive cells were detected by flow cytometry. Additionally, CFSE positive cells were detected by immunofluorescence on frozen sections from treated xenografts.
Fresh xenograft sections were fixed and stored in OCT. Fixed cryostat sections were blocked with 20% fetal calf serum (FCS) and stained with rat anti human CD45 (Invitrogen) and mouse antihuman FOXP3 (Biolegend), followed by donkey anti-rat AF594 (Invitrogen) and donkey anti-mouse NL637 (RnD Systems).
To assess if the induction of α4β7 was functionally relevant in vivo, cells treated with RAR568 or cells expanded under standard conditions were fluorescently labelled and transferred into a SCID mouse xenografted with human fetal intestinal small bowel by intra-venous injection. Inflammation was induced in the xenografts with Mycobactrium Avium Paratuberculosis (MAP). […]

CCOc1c(Cl)cc(C(=O)Nc2ccc(C(=O)O)c(C)c2)cc1OC(C)C [RAR568]
Treg trafficking to xenografts (72 hours following i.v. transfer of agonist-treated Tregs, compared to Tregs expanded under standard conditions): significantly more likely to traffic to xenografts
Treg trafficking to inflamed xenografts (MAP-induced inflammation, agonist-treated Tregs vs standard conditions): significantly more RAR568-treated cells trafficked to the inflamed xenografts
presence of CFSE labelled FOXP3+ Tregs in cryosections from inflamed xenografts (immunofluorescence, FIG. 5g): evident
